# Measurements reported in PubChem BioAssay (NCI).
#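 Exposure lasted 48 hours, with cells grown in 96-well plates and compounds tested at five concentrations. TGI is the concentration that stops growth completely.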
# Assays:
# Assay in all cases: DTP human tumour cell line panel, 48 h
# [1] = tested on: SF-268 CNS
# [2] = tested on: KM12 colon
# [3] = tested on: OVCAR-3 ovarian
# [4] = tested on: UO-31 renal
# [5] = tested on: OVCAR-8 ovarian
# [6] = tested on: SF-295 CNS
# [7] = tested on: K-562 leukemia
# [8] = tested on: OVCAR-5 ovarian
# [9] = tested on: SR leukemia
# [10] = tested on: ACHN renal
# [11] = tested on: SK-OV-3 ovarian
# [12] = tested on: LOX IMVI melanoma
# [13] = tested on: U251 CNS
SMILES,TGI [1] [µM],TGI [2] [µM],TGI [3] [µM],TGI [4] [µM],TGI [5] [µM],TGI [6] [µM],TGI [7] [µM],TGI [8] [µM],TGI [9] [µM],TGI [10] [µM],TGI [11] [µM],TGI [12] [µM],TGI [13] [µM]
CC1(C)OC(=S)N(c2ccccc2)C12C=Cc1cc3ccccc3cc1O2 (stereo unspecified),> 100,> 100,> 100,> 100,> 100,> 100,> 100,> 100,> 100,> 100,> 100,> 100,> 100
COC(Cc1ccccc1)NC(C)=O (stereo unspecified),> 100,> 100,> 100,> 100,> 100,> 100,> 100,> 100,> 100,> 100,> 100,> 100,> 100
CC1(C)CC[C@]2(C(=O)O)CC[C@]3(C)C(=CC[C@@H]4[C@@]5(C)CC[C@H](OC6OC(CO)C(O)C(O)C6OC6OC(CO)C(O)C(O)C6O)C(C)(C)[C@@H]5CC[C@]43C)[C@@H]2C1 (stereo partly specified),32,29.4,29.9,35.8,35.2,36,44.6,12.5,68,32.7,31.9,82.4,16.4
S=C1SC(c2ccc(Cl)cc2)(c2ccc(Cl)cc2)c2ccccc21,> 100,> 100,> 100,> 100,> 100,> 100,> 100,> 100,89.9,> 100,> 100,> 100,> 100
CC(=O)O[C@H]1[C@@H](N2CCN(C)CC2)C[C@H]2[C@@H]3CC=C4C[C@@H](N5CCCC5)CC[C@]4(C)[C@H]3CC[C@@]21C,> 100,> 100,> 100,> 100,> 100,53.5,33,> 100,5.52,> 100,> 100,39.4,> 100
COc1cc2c(cc1O)C(C)Cc1cc3c(cc1N(C)CC2)OCO3 (stereo unspecified),36.2,17.8,8.83,37.8,37.5,10.3,> 27.9,54.9,> 100,74.1,22.8,18.1,14.8
CCOC1SC(SC)=NN1C(=O)C(OC(C)=O)C(OC(C)=O)C(OC(C)=O)C(OC(C)=O)C(=O)N1N=C(SC)SC1OCC (stereo unspecified),> 100,> 100,> 100,> 100,> 100,> 100,> 100,> 100,> 100,> 100,> 100,> 100,> 100
